Read-outs that look alike come from different tables or passages of the source.

The target of the test is Protein arginine deiminase 4 (PAD4) (Homo sapiens, UniProt Q9UM07). The experiment in a line: PAD4 ammonia release assay. The class given is biochemical. How it is done: 1) Compound preparation: The compounds were diluted to 80× final concentrations. 2) The compounds were transferred to a 384-well assay plate by Tecan. DMSO: 1.25%. 3) Preparation of 1×Assay buffer: 100 mM HEPES, PH=8.0, 2 mM CaCl2, 50 mM NaCl, 0.1 mM TCEP, 0.6 mg/ml BSA. 4) 2× enzyme working solution (PAD4:20 nM) was prepared with assay buffer, and 10 μL of the obtained working solution were added to the 384-well assay plates. 5) The plate was centrifuged at 1000 rpm for 1 min. 6) After the centrifuge, the plate was incubated at RT for 15 min. 7) 2×BAEE substrate mix (600 μM) was prepared with assay buffer and 10 μL of the obtained substrate mix were added to each well. 8) The plate was centrifuged at 1000 rpm for 1 min and then incubated at RT for 60 min. 9) 1.5× detection mix (DTT:4 mM, OPA:3 mM, EDTA: 30 mM) was prepared, and 10 μL of the mix were added to the plate. 10) The plate was centrifuged at 1000 rpm for 1 min and then incubated at RT for 120 min. 11) The 384-well plates were placed into the Envision (PerkinElmer) and the assay data were collected.
Protein arginine deiminase 4 (PAD4), sequence (Q9UM07 whole entry): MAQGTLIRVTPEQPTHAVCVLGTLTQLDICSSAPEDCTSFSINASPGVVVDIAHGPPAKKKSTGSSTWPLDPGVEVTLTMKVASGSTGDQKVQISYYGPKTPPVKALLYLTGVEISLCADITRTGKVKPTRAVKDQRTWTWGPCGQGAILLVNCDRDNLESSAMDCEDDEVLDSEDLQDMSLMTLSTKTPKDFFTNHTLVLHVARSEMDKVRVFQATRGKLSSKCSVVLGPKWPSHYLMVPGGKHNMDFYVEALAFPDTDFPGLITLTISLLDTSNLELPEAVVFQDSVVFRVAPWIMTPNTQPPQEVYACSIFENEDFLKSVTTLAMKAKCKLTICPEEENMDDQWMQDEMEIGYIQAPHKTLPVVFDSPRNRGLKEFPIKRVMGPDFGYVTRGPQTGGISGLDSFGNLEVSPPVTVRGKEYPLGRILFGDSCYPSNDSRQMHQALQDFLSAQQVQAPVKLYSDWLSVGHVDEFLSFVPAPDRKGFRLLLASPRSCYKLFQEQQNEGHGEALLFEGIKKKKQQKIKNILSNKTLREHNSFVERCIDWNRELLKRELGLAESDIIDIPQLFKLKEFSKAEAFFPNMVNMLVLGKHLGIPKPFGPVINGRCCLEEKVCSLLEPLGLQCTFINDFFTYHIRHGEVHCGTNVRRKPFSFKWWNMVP
The percent (%) inhibition at each concentration of compound was calculated based on and relative to the signal in the HPE (50 μM ref. compound) and ZPE (1.25% DMSO) wells included within each assay plate. The HPE worked as 100% inhibition, and the ZPE worked as 0% inhibition. The concentrations and % inhibition values for tested compounds were plotted and the concentration of compound required for 50% inhibition (IC50) was determined with a Four-parameter logistic dose response equation. The endpoint value (IC50) for the reference compound was evaluated in each experiment as a quality control measure. If the endpoint value is within 3-fold of the expected value, then the experiment quality is deemed as acceptable. The results are provided in Table 1 below. ≤0.1 μM=“++++”; >0.1 and ≤0.5 μM=“+++”; >0.5 and ≤5.0 μM=“++”; >5.0 μM=“+”. “−”=not available.

The mark [1] stands for this setting: PAD4 ammonia release assay, BAEE substrate, 60 min at RT, read-out: Average IC50 Abs.

As usually defined, the IC50 is the concentration that gives 50% inhibition. `CCn1c(-c2cc3cccc4c3n2C(C)CN4CCCO)nc2cc(C(=O)N3C[C@H]4CC[C@@H]3[C@@H]4NC(=O)OC(C)(C)C)cc(OC)c21` (stereo partly drawn) [Example 67, tert-butyl ((1R,4R,7R)-2-(1-ethyl-2-(1-(3-hydroxypropyl)-3-methyl-2,3-dihydro-1H-pyrrolo[1,2,3-de]quinoxalin-5-yl)-7-methoxy-1H-benzo[d]imidazole-5-carbonyl)-2-azabicyclo[2.2.1]heptan-7-yl)carbamate]: the IC50 under setting [1] is > 5000 nM.
For `CCC1C(=O)Nc2cccc3cc(-c4nc5cc(C(=O)N6C[C@H]7CC[C@@H]6[C@@H]7N)cnn5c4C)n1c23` (stereo partly drawn) [Example 137, 2-[7-[(1R,4R,7R)-7-amino-2-azabicyclo[2.2.1]heptane-2-carbonyl]-3-methyl-imidazo[1,2-b]pyridazin-2-yl]-11-ethyl-1,9-diazatricyclo[6.3.1.04,12]dodeca-2,4,6,8(12)-tetraen-10-one], the IC50 under setting [1] is 500 to 5000 nM.
Still for that read-out and setting: for `Cn1c(-c2cc3ccc4c(c3n2CC2CC2)NCC[S+]4[O-])nc2cc(C(=O)N3C[C@H]4CC[C@@H]3[C@@H]4N)cc(F)c21` (stereo partly drawn) [Example 162, ((1R,4R,7R)-7-amino-2-azabicyclo[2.2.1]heptan-2-yl)(2-(9-(cyclopropylmethyl)-4-oxido-1,2,3,9-tetrahydro-[1,4]thiazino[2,3-g]indol-8-yl)-7-fluoro-1-methyl-1H-benzo[d]imidazol-5-yl)methanone] the value was 500 to 5000 nM.
The same measure, in the same setting: to `COc1cc(C(=O)N2C[C@H](N)C[C@@H](F)C2)cc2nc(-c3cc4cccc5c4n3CCN5CCCO)n(OC)c12` [Example 63, ((3R,5R)-3-amino-5-fluoropiperidin-1-yl)(2-(1-(3-hydroxypropyl)-2,3-dihydro-1H-pyrrolo[1,2,3-de]quinoxalin-5-yl)-1,7-dimethoxy-1H-benzo[d]imidazol-5-yl)methanone] belongs > 5000 nM; to `COc1cc(C(=O)N2C[C@H](N)C[C@@H](F)C2)cc2nc(-c3cc4cccc5c4n3CCN5CCCNC(C)=O)n(C)c12` [Example 1, N-(3-(5-(5-((3R,5R)-3-amino-5-fluoropiperidine-1-carbonyl)-7-methoxy-1-methyl-1H-benzo[d]imidazol-82-yl)-2,3-dihydro-1H-pyrrolo[1,2,3-de]quinoxalin-1-yl)propyl)acetamide], 500 to 5000 nM; to `CC[C@@H]1CNc2cccc3cc(-c4nc5cc(C(=O)N6C[C@H]7CC[C@@H]6[C@@H]7N)cc(F)c5n4C)n1c23` [Example 73, ((1R,4R,7R)-7-amino-2-azabicyclo[2.2.1]heptan-2-yl)(2-((R)-3-ethyl-2,3-dihydro-1H-pyrrolo[1,2,3-de]quinoxalin-5-yl)-7-fluoro-1-methyl-1H-benzo[d]imidazol-5-yl)methanone], > 5000 nM.
Still for that read-out and setting: for `CCC1C(=O)Nc2c(C#N)ccc3cc(-c4nc5cc(C(=O)N6C[C@H]7CC[C@@H]6[C@@H]7N)cc(F)c5n4C)n1c23` (stereo partly drawn) [Example 127, 5-(5-((1R,4R,7R)-7-amino-2-azabicyclo[2.2.1]heptane-2-carbonyl)-7-fluoro-1-methyl-1H-benzo[d]imidazol-2-yl)-3-ethyl-2-oxo-2,3-dihydro-1H-pyrrolo[1,2,3-de]quinoxaline-9-carbonitrile] the value was 500 to 5000 nM.
In the case of `Cn1c(-c2cc3ccc4c(c3n2CC2CC2)CC(=O)N4)nc2cc(C(=O)N3C[C@H]4CC[C@@H]3[C@@H]4N)cc(F)c21` [Example 145, 2-(5-((1R,4R,7R)-7-amino-2-azabicyclo[2.2.1]heptane-2-carbonyl)-7-fluoro-1-methyl-1H-benzo[d]imidazol-2-yl)-1-(cyclopropylmethyl)-6,8-dihydropyrrolo[2,3-e]indol-7(1H)-one], under setting [1], the IC50 fell in the range of 500 to 5000 nM.
The same measure, in the same setting: to `COc1cc(C(=O)N2CCC[C@@H](N)C2)cc2nc(-c3cc4cccc5c4n3CCN5C3CC(NC(C)=O)C3)n(C)c12` (stereo partly drawn) [Example 33, (R)—N-(3-(5-(5-(3-aminopiperidine-1-carbonyl)-7-methoxy-1-methyl-1H-benzo[d]imidazol-2-yl)-2,3-dihydro-1H-pyrrolo[1,2,3-de]quinoxalin-1-yl)cyclobutyl)acetamide] belongs 500 to 5000 nM.
On the same count and under the same terms, for `COc1cc(C(=O)N2CC[C@@H](N)C2)cc2nc(-c3cc4cccc5c4n3CCN5CCCO)n(C)c12` [Example 15, (R)-(3-aminopyrrolidin-1-yl)(2-(1-(3-hydroxypropyl)-2,3-dihydro-1H-pyrrolo[1,2,3-de]quinoxalin-5-yl)-7-methoxy-1-methyl-1H-benzo[d]imidazol-5-yl)methanone] the value was > 5000 nM.
Consider `COc1cc(C(=O)N2CCC[C@](C)(N)C2)cc2nc(-c3cc4cccc5c4n3CCN5CCCO)n(C)c12` [Example 19, (S)-(3-amino-3-methylpiperidin-1-yl)(2-(1-(3-hydroxypropyl)-2,3-dihydro-1H-pyrrolo[1,2,3-de]quinoxalin-5-yl)-7-methoxy-1-methyl-1H-benzo[d]imidazol-5-yl)methanone], for which the IC50 under setting [1] is > 5000 nM.
Same read-out and setting: to `CCC1C(=O)Nc2cccc3cc(-c4nc5cc(C(=O)N6C[C@H]7CC[C@@H]6[C@@H]7N)cc(F)c5n4C)n1c23` (stereo partly drawn) [Example 129, 5-(5-((1R,4R,7R)-7-amino-2-azabicyclo[2.2.1]heptane-2-carbonyl)-7-fluoro-1-methyl-1H-benzo[d]imidazol-2-yl)-3-ethyl-1H-pyrrolo[1,2,3-de]quinoxalin-2(3H)-one] belongs 100 to 500 nM.
Regarding `CCC1CNc2c(C)ccc3cc(-c4nc5cc(C(=O)N6C[C@H]7CC[C@@H]6[C@@H]7N)cc(F)c5n4C)n1c23` (stereo partly drawn) [Example 132, ((1R,4R,7R)-7-amino-2-azabicyclo[2.2.1]heptan-2-yl)(2-(3-ethyl-9-methyl-2,3-dihydro-1H-pyrrolo[1,2,3-de]quinoxalin-5-yl)-7-fluoro-1-methyl-1H-benzo[d]imidazol-5-yl)methanone], under setting [1], the concentration for half-maximal inhibition (IC50) was 100 to 500 nM.
On the same count and under the same terms, for `CCC1CN(CCCO)c2cccc3cc(-c4nc5cc(C(=O)N6C[C@H](N)C[C@@H](F)C6)cc(F)c5n4CC)n1c23` (stereo partly drawn) [Example 99, ((3R,5R)-3-amino-5-fluoropiperidin-1-yl)(1-ethyl-2-(3-ethyl-1-(3-hydroxypropyl)-2,3-dihydro-1H-pyrrolo[1,2,3-de]quinoxalin-5-yl)-7-fluoro-1H-benzo[d]imidazol-5-yl)methanone] the value was 100 to 500 nM.
Turning to `COc1cc(C(=O)N2CCC[C@@H](N)C2)cc2nc(-c3cc4cccc5c4n3C(C)CN5)n(C)c12` (stereo partly drawn) [Example 65, ((R)-3-aminopiperidin-1-yl)(7-methoxy-1-methyl-2-(3-methyl-2,3-dihydro-1H-pyrrolo[1,2,3-de]quinoxalin-5-yl)-1H-benzo[d]imidazol-5-yl)methanone], the IC50 is 2600 nM (PAD4 activity comparison, read-out: PAD4 Ammonia assay IC50) and 500 to 5000 nM under setting [1].
`CCC1CN(CC(C)(C)CO)c2cccc3cc(-c4nc5cc(C(=O)N6C[C@H]7CC[C@@H]6[C@@H]7N)cc(F)c5n4C)n1c23` (stereo partly drawn) [Example 89, ((1R,4R,7R)-7-amino-2-azabicyclo[2.2.1]heptan-2-yl)(2-(3-ethyl-1-(3-hydroxy-2,2-dimethylpropyl)-2,3-dihydro-1H-pyrrolo[1,2,3-de]quinoxalin-5-yl)-7-fluoro-1-methyl-1H-benzo[d]imidazol-5-yl)methanone]: the IC50 under setting [1] was in the range of 100 to 500 nM.
The same measure, in the same setting: for `COc1cc(C(=O)N2CCC[C@@H](N)C2)cc2nc(-c3cc4cccc5c4n3CCN5CCCOC(=O)NC3CC3)n(C)c12` [Example 27, (R)-3-(5-(5-(3-aminopiperidine-1-carbonyl)-7-methoxy-1-methyl-1H-benzo[d]imidazol-2-yl)-2,3-dihydro-1H-pyrrolo[1,2,3-de]quinoxalin-1-yl)propyl cyclopropylcarbamate] the value was 500 to 5000 nM; for `CCC1C(=O)Nc2c(F)ccc3cc(-c4nc5cc(C(=O)N6C[C@H]7CC[C@@H]6[C@@H]7N)cc(F)c5n4C)n1c23` (stereo partly drawn) [Example 126, 5-(5-((1R,4R,7R)-7-amino-2-azabicyclo[2.2.1]heptane-2-carbonyl)-7-fluoro-1-methyl-1H-benzo[d]imidazol-2-yl)-3-ethyl-9-fluoro-1H-pyrrolo[1,2,3-de]quinoxalin-2(3H)-one], 500 to 5000 nM.
Same read-out and setting: for `CC(C)[C@@H]1CNc2cccc3cc(-c4nc5cc(C(=O)N6C[C@H]7CC[C@@H]6[C@@H]7N)cc(F)c5n4C)n1c23` [Example 105, ((1R,4R,7R)-7-amino-2-azabicyclo[2.2.1]heptan-2-yl)(7-fluoro-2-((R)-3-isopropyl-2,3-dihydro-1H-pyrrolo[1,2,3-de]quinoxalin-5-yl)-1-methyl-1H-benzo[d]imidazol-5-yl)methanone] the value was 500 to 5000 nM; for `COc1cc(C(=O)N2CCC[C@@H](N)C2)cc2nc(-c3cc4cccc5c4n3CCN5C)n(C)c12` [Example 25], > 5000 nM.

For the origin of these results see patent US20250136607A1 (REGOR PHARMACEUTICALS, INC., priority 2021, published 2025).
